Experimental data as given in paper PMC11892739, “Site-specific molecular glues for the 14-3-3/Tau pS214 protein–protein interaction via reversible covalent imine tethering” (RSC Medicinal Chemistry, 2025).
Square brackets hold non-standard residues; d marks the D form. Peptide text beside a SMILES is read from it. pS = N[C@@H](COP(=O)(O)O)C(=O)O

Tests used:
[1] = target: T1, 14-3-3ζ/Tau pS2 peptide interaction (Homo sapiens, UniProt P63104); assay: Fluorescence anisotropy 14-3-3ζ titration in the presence of 250 μM compound and Tau pS2 peptide; format: binding; conditions: for SF250μM (stabilization factor): 250 μM compound, apparent KD compared to internal DMSO reference
T1 construct: made in house; host or cells: NiCo21 (DE3) E. coli
T1 sequence (P63104 1-245): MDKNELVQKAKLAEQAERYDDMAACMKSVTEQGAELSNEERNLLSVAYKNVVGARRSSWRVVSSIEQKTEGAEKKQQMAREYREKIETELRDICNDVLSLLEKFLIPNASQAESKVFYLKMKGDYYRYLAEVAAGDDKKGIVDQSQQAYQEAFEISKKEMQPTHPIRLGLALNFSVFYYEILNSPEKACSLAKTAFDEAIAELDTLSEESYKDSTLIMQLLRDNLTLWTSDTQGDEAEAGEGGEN
Description: On the other hand, the PPI stabilizing potency of series 1 compounds was highly dependent on the position and chemical property of the substituent. […] The compound screen for these compounds was further complemented by 14-3-3ζ titration assays in the presence of a constant concentration of compound (250 μM) and Tau pS2 peptide (10 nM) (Fig. 3c, ESI ^† Fig. S6).
This statement is strengthened by the diminished stabilizing activity when shifting the more polar chloro substituent from the para (14) to the ortho (5) to the meta position (8), respectively. […]
chromatography (HisTrap high performance cartridges, Cytiva). Typically two 5 mL columns were used for a 2 L culture in which the lysate was loaded on the column, washed with 10 CV wash buffer (50 mM Hepes, pH 8.0, 300 mM NaCl, 25 mM imidazole, 2 mM βME), and eluted with several fractions (2-4 CV) of elution buffer (50 mM Hepes, pH 8.0, 300 mM NaCl, 250 mM imidazole, 2 mM βME). Fractions containing the 14-3-3 protein were combined and dialyzed into 25 mM HEPES pH 8.0, 200 mM NaCl, 10 mM MgCl2, 2 mM βME, followed by dialysis into 25 mM HEPES, 100 mM NaCl, 10 mM MgCl2, 500 μM TCEP (adjusted to pH 8.0). Dialyzed protein was concentrated to ∼40 mg/mL, analyzed by Q -Tof LC/MS, and aliquots were flash -frozen for storage at −80 °C. For 14 -3-3σ∆c, 1 mg TEV per 100 mg purified protein was added to the dialysis to remove the purification tag. The cleaved sample was then again loaded on a 10 mL Ni-NTA column to separate the cleaved product from the expression tag and residual uncleaved protein. The flowthrough was loade d on a Superdex 75 pg 16/60 size exclusion column (GE Life Sciences) using 25 mM HEPES, 100 mM NaCl, 10 mM MgCl2, 500 μM TCEP (adjusted to pH = 8.0) as running buffer. Fractions containing the 14 -3-3 protein were pooled and concentrated to ∼60 mg/mL, analyzed Q -Tof LC/MS, and aliquots were flash -frozen for storage at −80°C.
(§1) Fluorescence Anisotropy – compound titration
(§2) Compound titration assays were performed by titrating compounds (in 1% DMSO, starting at 500 μM) in a 2-fold dilution series to preformed complex of fluorescein -labeled Tau pS2 (10 nM) and 14 -3-3ζ (100 nM) (which represents approximately 20% bound Tau pS2 peptide to 14 -3-3ζ to allow further complex formation by addition of fragments 1) in FA buffer (10 mM HEPES pH 7.4, 150 mM NaCl, 50 µM TCEP, 0.1% (v/v) Tween20, 0.1% (w/v) BSA). Dilution series were made in polystyrene low -volume 384 -well plates (Corning #4514, Black Round Bottom). Measurements were performed directly after plate preparation, using a Tecan SPARK plate reader at room temperature ( λex: 485±20 nm; λem: 535±25 nm; mirror: automatic; flashes: 30; settle time: 1 ms; gain: optimal; Z -position: calculated from well). Wells containing only fluorescein labelled peptide were used to set as G -factor calibrated from these wells. All data were analyzed using GraphPad Prism (10.0.1) and fitted with a four -parameter logistic model (4PL) to determine binding affinities (dissociation constant, KD). All data shown is background corrected for the signal without 14 -3-3ζ and the mean and standard deviation of technical duplicate is plotted, assay performed in a scientific duplicate for hit compounds.
Fluorescence Anisotropy – 14-3-3 titrations in the presence of compound To characterize the affinity of the Tau peptides for 14-3-3 in the presence of compound, 14-3-3ζ or γ was titrated in a 2-fold dilution series starting at 400 (for the 14-3-3ζ titrations to Tau pS2) or 800 (for the 14-3-3γ titrations to Tau pS214 or pS324) µM. 14-3-3 was added to 10 nM of fluorescein-labeled peptide (Tau pS2, Tau pS214 or Tau pS324) in the presence of 250 µM compound (1% DMSO). The assays were performed in a similar way as described above. Data shown is the average and standard deviation of a technical duplicate, top plateau corrected where needed, assay performed in a scientific duplicate.
Fluorescence Anisotropy – peptide screen […]

[2] = target: T1, 14-3-3ζ/Tau pS2 peptide interaction; assay: Fluorescence anisotropy compound titration to preformed 14-3-3ζ/Tau pS2 peptide complex; format: binding; conditions: FA
Description: With the compound library constructed, we sought to screen the stabilizing activity of the imidazole analogs for the 14-3-3ζ/Tau pS2 peptide interaction. In this regard, a fluorescence anisotropy (FA) assay was performed where each individual compound was titrated against a fixed concentration of 14-3-3ζ (100 nM) and fluorescein-labelled Tau pS2 peptide (10 nM; Fig. 3a and b, ESI ^† Fig. S4 and S5, Table 1, ESI ^† Table S1). Thereby, the fixed 14-3-3ζ concentration was based on the EC20 value of the binary complex formation to enable a sufficient dynamic window for ternary complex formation. […] For each compound dose–response curve, the background signal (titration without 14-3-3ζ) was subtracted, to exclude possible false positive results. […]
chromatography (HisTrap high performance cartridges, Cytiva). […] Dialyzed protein was concentrated to ∼40 mg/mL, analyzed by Q -Tof LC/MS, and aliquots were flash -frozen for storage at −80 °C. […] Fractions containing the 14 -3-3 protein were pooled and concentrated to ∼60 mg/mL, analyzed Q -Tof LC/MS, and aliquots were flash -frozen for storage at −80°C.
as §1
as §2, with “Dilution series were made in polystyrene low -volume 384 -well plates (Corning #4514, Black Round Bottom).” left out, “Wells containing only fluorescein labelled peptide were used to set as G -factor calibrated from these wells.” left out, “All data shown is background corrected for the signal without 14 -3-3ζ and the mean and standard deviation of technical duplicate is plotted, assay performed in a scientific duplicate for hit compounds.” left out

14-3-3ζ = target: 14-3-3ζ; design: method as in doi:10.1101/2024.03.15.585148; conditions: FA assay; read-out: KD of monovalent Tau peptide to 14-3-3ζ; cited from earlier work

SMILES: O=Cc1ccc(-n2c(-c3cccnc3)nc3ccccc32)cc1Br [Compound 2]
- SF250μM (stabilization factor) [1]: 20
- stabilization of the 14-3-3ζ/Tau pS2 peptide complex ([1]; screening hits): 20 fold

SMILES: O=Cc1ccc(-n2ccnc2-c2cccc3cccnc23)cc1Br [Compound 33]
- SF250μM (stabilization factor) [1]: 4.3

SMILES: CC(C)c1ccc(-c2nccn2-c2ccc(C=O)c(Br)c2)cc1 [Compound 19]
- PPI stabilizing activity (in words) [2]: completely diminished PPI stabilization

SMILES: CC[C@H](C)[C@H](NC(=O)[C@H](CC(N)=O)NC(=O)CNC(=O)[C@H](CC(C)C)NC(=O)[C@H](COP(=O)(O)O)NC(=O)CNC(=O)[C@H](CS)NC(=O)[C@H](CCCCN)NC(=O)[C@H](CO)NC(=O)[C@@H](NC(=O)[C@@H](NC(C)=O)C(C)C)[C@@H](C)O)C(=O)N[C@@H](Cc1c[nH]cn1)C(=O)N[C@@H](Cc1c[nH]cn1)C(=O)N[C@@H](CCCCN)C(=O)O [Tau pS324] (Ac-VTSKCG[pS]LGNIHHK-OH; C-terminus assumed)
- Kd (14-3-3ζ): > 100 µM

SMILES: CC(=O)N[C@@H](CO)C(=O)N[C@@H](CCCNC(=N)N)C(=O)N[C@H](C(=O)N1CCC[C@H]1C(=O)N[C@@H](COP(=O)(O)O)C(=O)N[C@@H](CC(C)C)C(=O)N1CCC[C@H]1C(=O)N[C@H](C(=O)N1CCC[C@H]1C(=O)N1CCC[C@H]1C(=O)N[C@H](C(=O)N[C@@H](CCCNC(=N)N)C(=O)N[C@@H](CCC(=O)O)C(=O)O)[C@@H](C)O)[C@@H](C)O)[C@@H](C)O [Tau pS214] (Ac-SRTP[pS]LPTPPTRE-OH; C-terminus assumed)
- Kd (14-3-3ζ): > 100 µM

SMILES: O=Cc1ccc(-n2ccnc2-c2ccc(N3CCOCC3)cc2)cc1Br [Compound 23]
- SF250μM (stabilization factor) [1]: 16

SMILES: O=Cc1ccc(-n2ccnc2-c2ccccc2Cl)cc1Br [Compound 5]
- SF250μM (stabilization factor) [1]: 7.5

SMILES: Cc1ccccc1-c1nccn1-c1ccc(C=O)c(Br)c1 [Compound 3]
- SF250μM (stabilization factor) [1]: 11

SMILES: COc1ccc(-c2nc3ccccc3n2-c2ccc(C=O)c(Br)c2)cc1 [Compound 29]
- SF250μM (stabilization factor) [1]: 8.3

SMILES: O=Cc1ccc(-n2ccnc2-c2cccc(O)c2)cc1Br [Compound 9]
- PPI stabilizing activity (in words) [2]: slightly inhibited 14-3-3ζ/Tau pS2 peptide complex formation

SMILES: O=Cc1ccc(-n2ccnc2-c2ccccc2)cc1Cl [Compound 25]
- SF250μM (stabilization factor) [1]: 15

SMILES: O=Cc1ccc(-n2ccnc2-c2ccccc2)cc1I [Compound 26]
- SF250μM (stabilization factor) [1]: 1.8

SMILES: O=Cc1ccc(-n2ccnc2-c2ccccc2)cc1C(F)(F)F [Compound 27]
- SF250μM (stabilization factor) [1]: 6.1

SMILES: O=Cc1ccc(-n2ccnc2-c2ccc(OCCO)cc2)cc1Br [Compound 24]
- PPI stabilizing activity (in words) [2]: did not show an improvement in PPI stabilization

SMILES: O=Cc1ccc(-n2c(-c3ccc(OCCO)cc3)nc3ccccc32)cc1Br [Compound 31]
- SF250μM (stabilization factor) [1]: 19
